How the values were obtained:
[1] = Compound cytotoxicity, XTT-based colorimetric assay in uninfected MT2 cells; format: cell-based; conditions: human, day 4, XTT assay
Experimental: Compound cytotoxicity and the corresponding CC50 values were determined using the same protocol as described in the antiviral assay except that uninfected cells were used. Cytotoxicity was assessed on day 4 in uninfected MT2 cells by using an XTT (2,3-bis[2-Methoxy-4-nitro-5-sulfophenyl]-2H-tetrazolium-5-carboxyanilide inner salt)-based colorimetric assay (Sigma-Aldrich, St Louis, Mo.).

[2] = system: recombinant NL4-3 virus (Renilla luciferase) in MT-2 cells; experiment: HIV cell culture assay (antiviral, luciferase readout in infected MT-2 cells); format: cell-based; conditions: NL43
Experimental: HIV cell culture assay—MT-2 cells, 293T cells and the proviral DNA clone of NL4-3 virus were obtained from the NIH AIDS Research and Reference Reagent Program. MT-2 cells were propagated in RPMI 1640 media supplemented with 10% heat inactivated fetal bovine serum (FBS), […]. The 293T cells were propagated in DMEM media supplemented with 10% heat inactivated FBS, […]. A recombinant NL4-3 proviral clone, in which a section of the nef gene was replaced with the Renilla luciferase gene, was used to make the reference virus used in these studies. The recombinant virus was prepared through transfection of the recombinant NL4-3 proviral clone into 293T cells using Transit-293 Transfection Reagent from Mirus Bio LLC (Madison, Wis.). Supernatent was harvested after 2-3 days and the amount of virus present was titered in MT-2 cells using luciferase enzyme activity as a marker by measuring luciferase enzyme activity. Luciferase was quantitated using the EnduRen Live Cell Substrate from Promega (Madison, Wis.). Antiviral activities of compounds toward the recombinant virus were quantified by measuring luciferase activity in MT-2 cells infected for 4-5 days with the recombinant virus in the presence of serial dilutions of the compound.
The 50% effective concentration (EC50) was calculated by using the exponential form of the median effect equation where (Fa)=1/[1+(ED50/drug conc.)m] (Johnson V A, Byington R T. Infectivity Assay. In Techniques in HIV Research. ed. Aldovini A, Walker B D. 71-76. New York: Stockton Press. 1990). The 50% inhibitory concentration (EC50) was calculated by using the exponential form of the median effect equation where percent inhibition=1/[1+(EC50/drug concentration)m], where m is a parameter that reflects the slope of the concentration-response curve.

SMILES: Cn1nc(NS(C)(=O)=O)c2c(Cl)ccc(-n3c([C@H](Cc4cc(F)cc(F)c4)NC(=O)Cn4nc(C5CC5)c5c4C(F)(F)[C@@H]4C[C@H]54)nc4nc(OCCC(C)(F)F)ccc4c3=O)c21 (atropisomer, axis not shown; (P)) [Example 1, N—((S)-1-((3P)-3-(4-chloro-1-methyl-3-(methylsulfonamido)-1H-indazol-7-yl)-7-(3,3-difluorobutoxy)-4-oxo-3,4-dihydropyrido[2,3-d]pyrimidin-2-yl)-2-(3,5-difluorophenyl)ethyl)-2-((3bS,4aR)-3-cyclopropyl-5,5-difluoro-3b,4,4a,5-tetrahydro-1H-cyclopropa[3,4]cyclopenta[1,2-c]pyrazol-1-yl)acetamide]
- CC50 at 4 day [1]: > 100 nM
- EC50 [2]: 0.027 nM

SMILES: Cn1nc(NS(C)(=O)=O)c2c(Cl)ccc(-n3c([C@H](Cc4cc(F)cc(F)c4)NC(=O)Cn4nc(C5CC5)c5c4C(F)(F)[C@H]4C[C@@H]54)nc4nc(OCCC(C)(F)F)ccc4c3=O)c21 (atropisomer, axis not shown; (P)) [Example 2, N—((S)-1-((3P)-3-(4-chloro-1-methyl-3-(methylsulfonamido)-1H-indazol-7-yl)-7-(3,3-difluorobutoxy)-4-oxo-3,4-dihydropyrido[2,3-d]pyrimidin-2-yl)-2-(3,5-difluorophenyl)ethyl)-2-((3bR,4aS)-3-cyclopropyl-5,5-difluoro-3b,4,4a,5-tetrahydro-1H-cyclopropa[3,4]cyclopenta[1,2-c]pyrazol-1-yl)acetamide]
- CC50 at 4 day [1]: > 100 nM
- EC50 [2]: 0.05 nM

SMILES: Cn1nc(NS(C)(=O)=O)c2c(Cl)ccc(-n3c([C@H](Cc4cc(F)cc(F)c4)NC(=O)Cn4nc(C5CC5)c5c4C(F)(F)[C@@H]4C[C@H]54)nc4nc(OCCC(F)(F)F)ccc4c3=O)c21 (atropisomer, axis not shown; (P)) [Example 3, N—((S)-1-((3P)-3-(4-chloro-1-methyl-3-(methylsulfonamido)-1H-indazol-7-yl)-4-oxo-7-(3,3,3-trifluoropropoxy)-3,4-dihydropyrido[2,3-d]pyrimidin-2-yl)-2-(3,5-difluorophenyl)ethyl)-2-((3bS,4aR)-3-cyclopropyl-5,5-difluoro-3b,4,4a,5-tetrahydro-1H-cyclopropa[3,4]cyclopenta[1,2-c]pyrazol-1-yl)acetamide]
- CC50 at 4 day [1]: > 100 nM
- EC50 [2]: 0.014 nM

SMILES: Cn1nc(NS(C)(=O)=O)c2c(Cl)ccc(-n3c([C@H](Cc4cc(F)cc(F)c4)NC(=O)Cn4nc(C5CC5)c5c4C(F)(F)[C@H]4C[C@@H]54)nc4nc(OCCC(F)(F)F)ccc4c3=O)c21 (atropisomer, axis not shown; (P)) [Example 4, N—((S)-1-((3P)-3-(4-chloro-1-methyl-3-(methylsulfonamido)-1H-indazol-7-yl)-4-oxo-7-(3,3,3-trifluoropropoxy)-3,4-dihydropyrido[2,3-d]pyrimidin-2-yl)-2-(3,5-difluorophenyl)ethyl)-2-((3bR,4aS)-3-cyclopropyl-5,5-difluoro-3b,4,4a,5-tetrahydro-1H-cyclopropa[3,4]cyclopenta[1,2-c]pyrazol-1-yl)acetamide]
- CC50 at 4 day [1]: > 100 nM
- EC50 [2]: 0.079 nM
